Drawing on PubChem BioAssay (NCI), this text covers TGI and GI50 for 20 compounds.

Holding throughout (test): NCI anticancer screen, dose series, 48 h
The test system of test [1] is NCI-H522 lung.
The subject of test [2] is UACC-62 melanoma.
Test [3] deals with LXFL 529 NSCLC.
The test system of test [4] is KM20L2 colon.
In test [5] the test system is SK-MEL-5 melanoma.
In test [6] the test system is DMS 273 small cell lung.
Test [7] deals with M19-MEL melanoma.
Test [8] has as its system SF-539 CNS.
In test [9] the test system is U251 CNS.
The test system of test [10] is HCC-2998 colon.
Test [11] has as its system RXF 393 renal.
For test [12], the system named is XF 498 CNS.
Test [13] has as its system HOP-18 NSCLC.
For test [14], the system named is SNB-78 CNS.
Test [15] relates to SK-MEL-28 melanoma.
For test [16], the system named is CCRF-CEM leukemia.
Test [17] concerns PC-3 prostate.

The structures appear in SMILES notation.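 Assay format: 96-well plates, 48-hour exposure. Abbreviation: GI50, concentration required for 50% inhibition of growth. Definition used: TGI = concentration required for complete inhibition of growth.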

For `O=C(O)CCC(=O)OCN1C(=O)C2C3C=CC(C2C1=O)C1C2C(=O)N(COC(=O)CCC(=O)O)C(=O)C2C31` (centres undefined), the TGI was greater than 85.8 µM in test [1]; greater than 100 µM in test [2]; greater than 100 µM in [3]; greater than 100 µM in test [4]; greater than 100 µM in test [5]; greater than 58.2 µM in test [6]. For the same compound, the TGI in test [7], in [8], in [9], in test [10], in [11] and in test [12] was greater than 100 µM each time. The TGI in [13] was greater than 100 µM; in [14], greater than 100 µM; in test [15], greater than 100 µM; in test [16], greater than 81.1 µM.

With `COc1ccccc1OCC(COC(=O)Nc1ccccc1)OC(=O)Nc1ccccc1` (centres undefined), the TGI in test [1], in [2], in [3], in [4], in test [5] and in test [6] was greater than 100 µM throughout. Besides, the TGI in [8] was 33.4 µM; in test [9], greater than 100 µM; in test [10] it was greater than 100 µM; in test [11] it was 46.8 µM; in test [12], greater than 100 µM; in test [13] it was greater than 100 µM. The TGI in test [14], in test [15] and in test [16] was greater than 100 µM in each case.

For the compound `COC(=O)C1CC2(C)C=CC1N(C(=O)OCc1ccccc1)C2` (centres undefined), the TGI in test [1], in test [2], in [5], in test [17], in test [8] and in test [9] was greater than 100 µM each time. Moreover, the TGI in test [10], in test [11], in [15] and in test [16] was greater than 100 µM in each case.

For the compound `CC(C(=O)OCc1ccccc1)N(Cc1ccccc1)Cc1ccccc1` (centres undefined), the TGI in test [1], in test [2], in test [3], in test [4], in [5] and in test [6] was greater than 100 µM throughout. The TGI in test [8] was greater than 100 µM; in test [9], greater than 100 µM; in test [10] it was greater than 100 µM; in [11], 88 µM; in test [12], 77.7 µM; in test [14] it was greater than 100 µM. Also, the TGI in [15] and in test [16] was greater than 100 µM each time.

In the case of `COC(=O)C1=C(OC(=O)/C(=C/c2ccccc2)c2ccc(OC)cc2)C(C(=O)OC)[C@@]2(O)[C@@H](C(=O)OC)[C@H](C)C[C@@H]1[C@@H]2C(=O)OC` (some centres undefined), the TGI in test [1], in [2], in [5], in test [17], in test [8] and in test [9] was greater than 100 µM each time. The TGI was greater than 100 µM in [10], 64.7 µM in [11], greater than 100 µM in [15] and greater than 100 µM in [16].

`O=C(NNC(=S)Nc1ccccc1)c1nsc2ccccc12`: the TGI in test [2] is 85.7 µM; in test [3] it was greater than 100 µM; in test [4], greater than 100 µM; in test [5] it was greater than 100 µM; in test [6], 69.8 µM; in test [7], greater than 100 µM. Also, the TGI is 97.8 µM in [8]; greater than 100 µM in test [9]; greater than 100 µM in test [10]; greater than 100 µM in test [11]; 41.4 µM in test [13]; greater than 100 µM in test [14]. In addition, the TGI is greater than 100 µM in test [15] and 49 µM in test [16].

Turning to `COc1cc2cc(C(=O)N3CC(COS(C)(=O)=O)c4ccc(NC(=O)OCc5ccccc5)cc43)[nH]c2c(OC)c1OC` (centres undefined), the TGI in [1], in test [2], in test [5], in test [17], in test [8] and in test [9] was greater than 100 µM in each case. Also, the TGI in [10], in [11], in [15] and in test [16] was greater than 100 µM each time.

On to `CSC(SC)=C(C#N)C(=O)Nc1cccc(Cl)c1`, for which the TGI in test [1] is 43.8 µM; in test [2] it was greater than 100 µM; in test [5], 40.7 µM; in test [17], greater than 100 µM; in test [8], greater than 100 µM; in [9] it was greater than 100 µM. Besides, the TGI in test [10], in test [11], in [15] and in test [16] was greater than 100 µM in each case.

Consider `CC1CC[C@@]2(OC1)O[C@H]1[C@H](O)[C@H]3[C@@H]4CC[C@H]5C[C@@H](OC6OC(CO)C(OC7OC(CO)C(O)C(OC8OCC(O)C(O)C8O)C7OC7OC(CO)C(O)C(O)C7OC7OC(CO)C(O)C(O)C7O)C(O)C6O)[C@H](O)C[C@]5(C)[C@H]4CC[C@]3(C)[C@H]1[C@@H]2C` (some centres undefined), for which the TGI was 6.87 µM in [1]; greater than 10 µM in [2]; greater than 10 µM in test [5]; 7.84 µM in [17]; greater than 10 µM in test [8]; greater than 10 µM in test [9]. The TGI was greater than 10 µM in test [10], greater than 10 µM in [11], greater than 10 µM in test [15] and 2.51 µM in [16].

With `Cc1ccc(S(=O)(=O)N2C[C@@H]3CC[C@]4(CO[Si](C)(C)C(C)(C)C)N[C@@H](c5ccccc5)[C@H]2[C@H]34)cc1`, the TGI is greater than 100 µM in test [1]; greater than 100 µM in test [2]; 30.6 µM in test [5]; greater than 100 µM in test [17]; greater than 100 µM in test [8]; greater than 100 µM in [9]. The TGI in [10] is 50.5 µM; in [11], 53.1 µM; in test [15], greater than 100 µM; in test [16] it was greater than 100 µM.

Turning to `NNC(=O)Nc1nc2ccc(NN)cc2[nH]1`, the TGI was 92.6 µM in [1]; 56.4 µM in [2]; 51.9 µM in [5]; greater than 100 µM in [17]; 28.5 µM in test [8]; greater than 100 µM in [9]. For the same compound, the TGI in test [10] was 41.4 µM; in test [11], 97.2 µM; in [15], 56.8 µM; in test [16], 41.7 µM.

`CCn1c(=O)c2nc(SC)sc2n(-c2ccc(C)cc2)c1=O`: the TGI in test [1], in test [2], in test [5], in [17], in [8] and in test [9] was greater than 100 µM throughout. Besides, the TGI in [10], in test [11], in test [15] and in [16] was greater than 100 µM in each case. The GI50 in [2] was 41.2 µM.

In the case of `Cc1cccc2c(N)c3cccc(C(=O)NCC[N+](C)(C)Cc4ccc([N+](=O)[O-])s4)c3nc12`, the TGI in [1] is 28.2 µM; in [2], greater than 49.1 µM; in test [5], 28.2 µM; in test [17], 30.5 µM; in test [8], 23.9 µM; in [9], greater than 100 µM. The TGI in test [10] was 25.2 µM; in test [11], 25.9 µM; in test [15], greater than 100 µM; in test [16], 24.4 µM.

For `Cn1nc2ccc(Nc3cc(=O)[nH]c4ccc5nn(C)nc5c34)cc2n1`, the TGI in test [1], in test [2], in test [5], in test [17], in test [8] and in test [9] was greater than 100 µM in each case. In addition, the TGI in test [10], in test [11], in test [15] and in test [16] was greater than 100 µM in each case.

Take `CCCC[C@@H](C)/C=C1\CN2CCC[C@H]2[C@@](C)(OCc2ccccc2)[C@@H]1O`: the TGI was greater than 50 µM in test [1]; greater than 50 µM in [2]; greater than 50 µM in test [5]; greater than 50 µM in [17]; 49.7 µM in test [8]; greater than 50 µM in test [9]. The TGI in test [10], in [11], in test [15] and in [16] was greater than 50 µM in each case.

Regarding `CC(C)(C)OC(=O)NC12C3C4C1C1C2C3C41NC(=O)OC(C)(C)C` (centres undefined), the TGI in test [1] was greater than 100 µM; in [2], greater than 100 µM; in test [5], greater than 100 µM; in test [17], greater than 100 µM; in [8], 93.9 µM; in [9], greater than 100 µM. In addition, the TGI was greater than 100 µM in test [10], 84.4 µM in test [11], greater than 100 µM in test [15] and 61.7 µM in test [16].

Turning to `O=C(CCN1CCOCC1)/C(=C/c1ccccc1)c1ccccc1`, the TGI came out at 3.84 µM in test [1]; 7.52 µM in test [2]; 15.1 µM in test [4]; 21.5 µM in test [5]; 21.4 µM in [6]; 14.1 µM in test [7]. Moreover, the TGI came to 9.31 µM in [8]; 12.9 µM in test [9]; 28.3 µM in test [10]; 3.4 µM in test [11]; 19.1 µM in test [12]; 30.6 µM in [13]. The TGI in test [14] was found to be 21.3 µM; in test [15] it was 20.3 µM.

Consider `O=C(/C(=C(/O)c1ccccc1)c1nc2ccccc2sc1=O)c1ccccc1`, for which the TGI was 68 µM in [1]; greater than 100 µM in [2]; 54.3 µM in test [5]; greater than 100 µM in test [17]; 75 µM in [8]; greater than 100 µM in [9]. Besides, the TGI in [10] is 59.7 µM; in test [11], greater than 100 µM; in [15], greater than 100 µM; in [16], 6.51 µM.

With `CC(=O)n1cc(C2CC23N=C(c2ccccc2)OC3=O)c2ccccc21` (centres undefined), the TGI in [1] came to 37.3 µM; in test [2], 31.7 µM; in test [5], 40.2 µM; in test [17], 41.5 µM; in [8], 41.2 µM; in [9], 36.8 µM. The TGI in test [10] is 30.8 µM; in [11], 34.6 µM; in test [15] it was 45.6 µM; in [16], 7.86 µM.

On to `COc1ccccc1-n1c(=O)n(C)c(=O)n1C(C)(C)C`, for which the TGI in test [1], in [2], in [5], in [17], in test [8] and in test [9] was greater than 100 µM throughout. The TGI in test [10], in [11], in [15] and in test [16] was greater than 100 µM each time.
